Laboratory results published in patent publication US20230113847A1, “[…] IMMUNE RESPONSE WITH CUPROUS COMPLEXES” (C LAB PHARMA INTERNATIONAL, S.A., priority 2020, published 2023).

Tests used:
[1] = stated in description, relevance to route of administration
[2] = tested on: Lymphocytes; settings: Day 28, twice daily administration; otherwise healthy subjects with chronic pain
Experimental: (§1) Ethics: This study was reviewed by the Natural Health Products Directorate (NHPD), Health Canada and a research ethics board. This study was conducted in accordance with the principles established in the Declaration of Helsinki and its subsequent amendments. Informed consent was obtained from each subject at the screening visit prior to any study related activities. The clinical trial was conducted at KGK Synergize Inc. (London, ON, Canada).
(§2) Sample Collection: As depicted in FIG. 1, blood was collected from participants on the initial screening (Day −1), the first day of administering the treatment composition (Day 0), and on Day 28. Collected blood was analyzed to determine the complete blood count (CBC), electrolyte composition, and liver enzymes composition according to standardized procedures at LifeLabs (London, ON, Canada).
(§3) Dosing Regimen: Each participant was randomly assigned an identifier code and placed in either the Cunermuspir or placebo treatment groups at a 1:1 ratio. Participants were given 2 capsules on Day 0 and instructed to take the contents sublingually with a small meal. Starting on Day 1, participants were instructed to take one capsule orally in the morning with breakfast, and one capsule orally between lunch and dinner, with food, for a total of 2 capsules daily over the course of the study. Participants were instructed to take all capsules with adequate, but not excessive, amounts of liquid.

[3] = tested on: Neutrophil to Lymphocyte Ratio; settings: Day 28, twice daily administration
Experimental: as §1, §2, §3

[4] = tested on: Neutrophils; settings: Day 28, twice daily administration; otherwise healthy subjects with chronic pain
Experimental: as §1, §2, §3

[5] = tested on: neuromuscular pain; settings: Day 28 in comparison to Day 0; subjects with neuromuscular pain; twice daily administration; placebo group showed upward trend
Description: as §3

| SMILES | pH of the complex [1] | lymphocyte numbers relative to the placebo group [2] | neutrophil to lymphocyte ratio relative to the placebo group [3] | neutrophil numbers relative to the placebo group [4] | SQIR scores in Symptom, Impact and Function Domains [5] |
| --- | --- | --- | --- | --- | --- |
| NCC(=O)[O-].[Cu+] [Copper (I) glycinate, cuprous glycinate] | more neutral pH |  |  |  |  |
| O=C(O)c1cccnc1.[Cu+] [Cu(I)NA2, cuprous nicotinic acid] | acidic pH | significant increase | significant decrease | significant decrease | decreased scores |
